Experimental findings from ChEMBL document CHEMBL5233211, “Progress in PD-1/PD-L1 pathway inhibitors: From biomacromolecules to small molecules” (Eur J Med Chem, 2020) are described below.

Numbered stars: 1 amine (or outer) side, 2 acyl side, 3 side chain; on linkers, the order of the positions; unused ones are H or OH. Bridge positions count the residues as written; N and C are the ends. Square brackets hold non-standard residues; d marks the D form. Peptide text beside a SMILES is read from it. ξ: configuration not given here. X1 = O=C(C(CO)NN[*:1])[*:2]; ξY = NC(Cc1ccc(O)cc1)C(=O)O; ξQ = NC(=O)CCC(N)C(=O)O; ξN = NC(=O)CC(N)C(=O)O

Sequence of Programmed cell death 1 ligand 1 (Homo sapiens, UniProt Q9NZQ7) (Q9NZQ7 whole entry): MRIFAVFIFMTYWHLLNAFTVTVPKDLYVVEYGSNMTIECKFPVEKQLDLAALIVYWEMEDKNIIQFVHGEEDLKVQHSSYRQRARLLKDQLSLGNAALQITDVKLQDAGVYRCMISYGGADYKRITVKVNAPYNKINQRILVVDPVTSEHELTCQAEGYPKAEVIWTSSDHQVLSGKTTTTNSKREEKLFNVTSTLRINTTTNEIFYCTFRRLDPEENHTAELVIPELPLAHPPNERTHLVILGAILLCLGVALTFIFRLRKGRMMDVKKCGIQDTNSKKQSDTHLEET

One experiment deals with CT26. The experiment can be described thus: Antitumor activity against mouse CT26 cells implanted in mouse at 3 mg/kg administered for 25 days. The experiment is classed as functional. The note with it: time 25 day.
As to `C[C@H](O)[C@H](NC(=O)N[C@@H](CC(N)=O)C(=O)NNC(=O)[C@@H](N)CO)C(=O)O`, the Activity is 46%.

Test system in the next experiment: not listed separately
Nature of the experiment: Inhibition of VISTA/PD-1 interaction in human PBMCs assessed as increase in INFgamma production. In kind it is cell-based. The note with it: PBMC.
As for `CC(O)[C@H](NC(=O)N[C@@H](CC(N)=O)c1nnc([C@@H](N)CO)s1)C(=O)O` (stereo partly specified), the EC50 – broadly, the concentration at which the effect is half-maximal – was found to be 49.4 nM.

Another experiment concerns the target Programmed cell death 1 ligand 1 (Homo sapiens, UniProt Q9NZQ7). Nature of the experiment: Inhibition of PD-L1 in human PBMCs assessed as increase in INFgamma production. The experiment is classed as cell-based, PBMC.
Conditions: not given
Turning to `CC(O)[C@H](NC(=O)N[C@@H](CC(N)=O)c1nnc([C@@H](N)CO)s1)C(=O)O` (stereo partly specified), the EC50 amounted to 56.4 nM.

The target of a further experiment is T1, Programmed cell death protein 1/Programmed cell death 1 ligand 1 (Homo sapiens, UniProt Q15116+Q9NZQ7). The experiment can be described thus: Inhibition of human PD-1/PD-L1 interaction. In kind it is protein-complex assay.
T1 sequence (Q15116 whole entry): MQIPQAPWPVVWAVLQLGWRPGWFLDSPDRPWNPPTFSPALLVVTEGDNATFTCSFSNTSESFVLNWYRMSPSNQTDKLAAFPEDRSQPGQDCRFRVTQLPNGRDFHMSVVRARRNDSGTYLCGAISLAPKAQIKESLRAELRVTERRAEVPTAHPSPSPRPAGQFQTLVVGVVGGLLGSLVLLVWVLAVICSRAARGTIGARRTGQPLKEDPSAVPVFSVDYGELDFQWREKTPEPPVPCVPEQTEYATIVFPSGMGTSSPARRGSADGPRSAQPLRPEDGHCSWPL
T1 sequence (Q9NZQ7 whole entry): as the sequence (Q9NZQ7 whole entry) above
Conditions: not given
The molecule `CC[C@H](C)[C@@H]1NC(=O)[C@H](CC(C)C)NC(=O)[C@H](Cc2ccccc2)NC(=O)CSC[C@@H](C(=O)NCC(N)=O)NC(=O)[C@H](CCCNC(=N)N)NC(=O)[C@H](Cc2ccccc2)NC(=O)[C@H](C(C)C)NC(=O)[C@H](CCCNC(=N)N)NC(=O)[C@H](CC(=O)O)NC(=O)[C@H](CCCNC(=N)N)NC(=O)[C@H]([C@@H](C)CC)NC(=O)[C@H](C(C)C)NC1=O` ({CH2CO}-FLIVIRDRVFRCG-NH2; thioether N-12) gave an EC50 of 0.72 nM.

As to `Cc1c(-c2ccc3c(c2)OCCO3)cccc1-c1nc2cc(CNCCO)c(OCC#N)cc2o1`, the IC50 (usually the concentration that inhibits the measured activity by half) is less than 10 nM.

In the case of `Cc1c(-c2nc3cc(CN4CC[C@@](C)(C(=O)O)C4)cc(C#N)c3o2)cccc1-c1cccc(-c2nc3c(s2)CN(C(=O)CN(C)C(C)C)C3)c1C`, the IC50 is less than 10 nM.

In the case of `Cc1c(Nc2nccc3cc(CN[C@H](C)CO)cnc23)cccc1-c1cccc(-c2nc3cc(CN4CCC(C(=O)O)CC4)cc(C#N)c3o2)c1C`, the IC50 is less than 10 nM.

Turning to `Cc1c(-c2nc3c(o2)CN(C(=O)CN2CCC(O)CC2)C3)cccc1-c1cccc(-c2nc3cc(CN4CC[C@@](C)(C(=O)O)C4)cc(C#N)c3o2)c1C`, the IC50 was less than 10 nM.

`Cc1c(-c2ccc3c(c2)OCCO3)cccc1-c1nc2cc(CNCCO)cc(C)c2o1` returned an IC50 of less than 10 nM.

Regarding `Cc1c(-c2ccccc2)cccc1-c1nc2cc(CNCCO)ccc2o1`, the IC50 was less than 10 nM.

Molecule `Cc1c(Nc2nccc3cc(CN4CC[C@@H](O)C4)cnc23)cccc1-c1cccc(-c2nc3cc(CN[C@H]4CC[C@@H](C(=O)O)C4)cc(C#N)c3o2)c1C` returned an IC50 of less than 10 nM.

In turn, `Cc1c(-c2ccccc2)cccc1-c1nc2cc(CNCCO)c(OCCN3CCOCC3)cc2o1` had an IC50 of less than 10 nM.

The target of a further experiment is Programmed cell death 1 ligand 1 (Mus musculus, UniProt Q9EP73). The experiment can be described thus: Inhibition of PD-L1 in mouse splenocytes assessed as increase in INFgamma release. The experiment is classed as cell-based, Splenocyte.
Sequence of Programmed cell death 1 ligand 1 (Mus musculus, UniProt Q9EP73) (Q9EP73 whole entry): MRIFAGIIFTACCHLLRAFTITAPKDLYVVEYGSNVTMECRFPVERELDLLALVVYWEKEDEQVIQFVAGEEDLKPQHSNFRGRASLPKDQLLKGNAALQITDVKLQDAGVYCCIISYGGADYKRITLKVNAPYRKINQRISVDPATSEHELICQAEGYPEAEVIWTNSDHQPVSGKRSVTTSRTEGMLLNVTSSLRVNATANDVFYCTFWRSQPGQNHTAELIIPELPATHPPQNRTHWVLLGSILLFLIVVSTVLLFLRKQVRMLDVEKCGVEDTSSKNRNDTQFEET
Conditions: not given
Consider `C[C@@H](O)[C@H](N)C(=O)NNC(=O)[C@H](CC(N)=O)NC(=O)N[C@@H](CO)C(=O)O`, for which the EC50 was 27 nM.

Turning to `C[C@H](O)[C@@H](N)C(=O)NNC(=O)[C@@H](CC(N)=O)NC(=O)N[C@H](CO)C(=O)O`, the EC50 was 40 nM.

`C[C@H](O)[C@H](NC(=O)N[C@@H](CC(N)=O)C(=O)NNC(=O)[C@@H](N)CO)C(=O)O`: the EC50 is 30 nM.

For `CC(O)[C@H](NC(=O)N[C@@H](CC(N)=O)c1nnc([C@@H](N)CO)s1)C(=O)O` (stereo partly specified), the EC50 came to 33.8 nM.

Target in a further experiment: not listed separately
Nature of the experiment: Binding affinity to human PD-1.
Conditions: not given
With H-FNWDYSLEELREKAKYK-OH, the Kd (as a rule, a measure of binding affinity in units of concentration) stood at 3140 nM.

H-LDYVNRRKMYQ-OH returned a Kd of 3320 nM.

As for H-FNWDYSWKSERLKEAYDL-OH, the Kd was found to be 339000 nM.

As to `CC(C)C[C@H](NC(=O)[C@H](CCC(N)=O)NC(=O)[C@H](C)NC(=O)[C@H](CCCNC(=N)N)NC(=O)[C@H](CCC(N)=O)NC(=O)[C@H](CO)NC(=O)[C@H](CC(N)=O)NC(=O)[C@H](Cc1ccc(O)cc1)NC(=O)[C@H](CC(=O)O)NC(=O)[C@H](Cc1c[nH]c2ccccc12)NC(=O)C(CC(N)=O)NC(=O)CN)C(=O)N[C@@H](Cc1ccc(O)cc1)C(=O)N[C@@H](CC(N)=O)C(=O)N[C@@H](CCC(N)=O)C(=O)O` (stereo partly specified) (H-G[ξN]WDYNSQRAQLYNQ-OH), the dissociation constant (Kd) came out at 1380 nM.

H-GIDYEERWK-OH registered a Kd of 28300 nM.

H-LDYGDKREGQMAE-OH: binding was put at a Kd of 21600 nM.

`CC[C@H](C)[C@H](NC(=O)[C@H](CC(N)=O)NC(=O)CNC(=O)[C@H](Cc1cnc[nH]1)NC(=O)[C@H](CCCNC(=N)N)NC(=O)C(Cc1ccc(O)cc1)NC(=O)[C@H](CC(=O)O)NC(=O)[C@H](CCCCN)NC(=O)[C@H](CCC(=O)O)NC(=O)[C@@H](N)[C@@H](C)O)C(=O)N[C@@H](CCCNC(=N)N)C(=O)N[C@@H](CCSC)C(=O)N[C@@H](CCCCN)C(=O)N[C@@H](CC(C)C)C(=O)N[C@@H](C)C(=O)N[C@@H](Cc1ccc(O)cc1)C(=O)N[C@@H](CC(=O)O)C(=O)N[C@@H](CC(C)C)C(=O)O` (stereo partly specified) (H-TEKD[ξY]RHGNIRMKLAYDL-OH) gave a Kd of 3130 nM.

As for `N[C@@H](Cc1c[nH]c2ccccc12)C(=O)N[C@@H](CC(=O)O)C(=O)N[C@@H](Cc1ccc(O)cc1)C(=O)N[C@@H](CC(=O)O)C(=O)O` (H-WDYD-OH), the affinity, expressed as Kd, was 22400 nM.

Test system in the next experiment: not listed separately
The experiment can be described thus: Induction of mouse splenocytes proliferation at 100 nM. The experiment is classed as functional, Splenocyte.
Conditions: not given
`CC(O)[C@H](NC(=O)N[C@@H](CCC(N)=O)c1nnc([C@@H](N)C(C)O)o1)C(=O)O` (stereo partly specified): the Activity is reported as 97%.

For `C[C@@H](O)[C@H](N)c1noc([C@H](Cc2ccc(O)cc2)NC(=O)N2CCC[C@H]2C(=O)O)n1`, the Activity turned out to be 99%.

`CCN(Cc1ccccc1)C(=O)N[C@@H](CC(N)=O)c1nc([C@@H](N)CO)no1` registered an Activity of 92%.

`C[C@H](O)[C@H](NC(=O)N[C@@H](Cc1ccccc1)c1nc([C@@H](N)CO)no1)C(=O)O` had an Activity of 92%.

For the molecule `N[C@@H](Cc1ccc(O)cc1)c1noc([C@@H]2CCCN2C(=O)N[C@@H](Cc2ccc(O)cc2)C(=O)O)n1`, the Activity was found to be 91%.

The target of a further experiment is T1, Programmed cell death protein 1/Programmed cell death 1 ligand 1. The experiment can be described thus: Inhibition of PD-1/PD-L1 interaction in human MDA-MB-231 cells assessed as increase in mouse splenocytes proliferation. In kind it is cell-based. Details: concentration or dose not given beside the values.
Conditions: not given
As for `C[C@@H](O)[C@@H]1NC(=O)C(N[C@@H](CO)C(=O)O)CCCCNC(=O)CCC(C(=O)N[C@@H](CO)C(=O)N[C@@H](Cc2ccccc2)C(N)=O)NC(=O)[C@H](CO)NC1=O` (stereo partly specified), the Activity came out at 84%.

As to `CC[C@H](C)[C@H](NC1CCC(=O)NCCCCC(C(=O)N[C@@H](CO)C(=O)NC(CCC(N)=O)C(=O)O)NC(=O)[C@H](CO)NC(=O)[C@H](CCSC)NC1=O)C(=O)O` (stereo partly specified), the Activity was 76%.

Consider `C[C@@H](O)[C@H](NC(=O)[C@H](CO)NC(CCC(=O)NCCCCNC(=O)C(Cc1ccccc1)NC(=O)C(N)CO)C(N)=O)C(=O)N[C@@H](CC(N)=O)C(=O)N[C@@H](CO)C(=O)O` (stereo partly specified), for which the Activity was found to be 87%.

Regarding `C[C@@H](O)[C@@H]1NC(=O)[C@H](CC(N)=O)NC(=O)C(CO)NNC(=O)C(CCC(N)=O)NC(=O)[C@H](Cc2ccccc2)NC(=O)[C@H](CO)NC(=O)[C@H](CCC(=O)O)NC(=O)[C@H](CO)NC1=O` (stereo partly specified) (cyclo(ESF[ξQ][X1]NTS)), the Activity worked out at 76%.

For the molecule `C[C@@H](O)[C@@H]1NC(=O)C(N[C@@H](CO)C(=O)O)CCC(=O)NCCCCC(C(=O)N[C@@H](CO)C(=O)N[C@@H](Cc2ccccc2)C(N)=O)NC(=O)[C@H](CO)NC1=O` (stereo partly specified), the Activity was found to be 78%.

`CC[C@H](C)[C@H](NC1CCC(=O)NCCCCC(C(=O)N[C@@H](CO)C(=O)N[C@@H](Cc2ccccc2)C(N)=O)NC(=O)[C@H](CO)NC(=O)[C@H]([C@@H](C)O)NC1=O)C(=O)O` (stereo partly specified): the Activity came out at 76%.

A further experiment concerns the target T2, Programmed cell death 1 ligand 2 (Homo sapiens, UniProt Q9BQ51).
T2 sequence (Q9BQ51 whole entry): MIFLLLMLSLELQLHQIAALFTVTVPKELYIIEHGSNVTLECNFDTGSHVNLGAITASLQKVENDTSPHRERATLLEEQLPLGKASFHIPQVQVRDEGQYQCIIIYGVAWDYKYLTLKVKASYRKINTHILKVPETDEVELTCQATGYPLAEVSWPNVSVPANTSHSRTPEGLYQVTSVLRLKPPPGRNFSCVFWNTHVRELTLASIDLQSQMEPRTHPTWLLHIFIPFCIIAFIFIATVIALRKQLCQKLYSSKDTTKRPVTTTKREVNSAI
Nature of the experiment: Inhibition of PD-L2 in human PBMCs assessed as increase in INFgamma production. The experiment is classed as cell-based, PBMC.
Conditions: not given
In the case of `CC(O)[C@H](NC(=O)N[C@@H](CC(N)=O)c1nnc([C@@H](N)CO)s1)C(=O)O` (stereo partly specified), the EC50 was 149 nM.

A further experiment addresses T1, Programmed cell death protein 1/Programmed cell death 1 ligand 1. Nature of the experiment: Inhibition of recombinant human PD-1/PD-L1 interaction relative to control. In kind it is protein-complex assay. The note with it: concentration not given here.
On to `CCCCN(CCCC)CCOc1cccc(OC(=O)N(C)C)c1`, for which the inhibition – broadly, the percentage by which the read-out fell short of the control – was found to be 41.9%.

Consider `Cc1nnc(NS(=O)(=O)c2ccc(N)cc2)s1`, for which the inhibition amounted to 29.3%.

`CNCCOc1cccc(OC(=O)N(C)C)c1`: the inhibition was 18.5%.

Take `COc1cc(NS(=O)(=O)c2ccc(N)cc2)ncn1`: the inhibition is 10.2%.

The next experiment has as its target T3, Programmed cell death 1 ligand 2 (Mus musculus, UniProt Q9WUL5).
T3 sequence (Q9WUL5 whole entry): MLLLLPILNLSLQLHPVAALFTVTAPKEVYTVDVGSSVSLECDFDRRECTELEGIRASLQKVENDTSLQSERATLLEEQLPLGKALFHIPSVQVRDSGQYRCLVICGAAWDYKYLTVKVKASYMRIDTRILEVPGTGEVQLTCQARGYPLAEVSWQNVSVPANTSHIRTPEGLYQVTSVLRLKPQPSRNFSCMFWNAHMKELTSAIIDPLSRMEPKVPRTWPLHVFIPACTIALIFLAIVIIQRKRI
Nature of the experiment: Inhibition of PD-L2 in mouse splenocytes assessed as increase in INFgamma production. The experiment is classed as cell-based, Splenocyte.
Conditions: not given
`CC(O)[C@H](NC(=O)N[C@@H](CC(N)=O)c1nnc([C@@H](N)CO)s1)C(=O)O` (stereo partly specified): the EC50 came to 55 nM.
